Entries after “also recorded” stand apart in the source; their conditions may differ.
What was measured:
[1] = tested on: testicular steroidogensis; assay: Inhibition of testicular steroidogenesis in healthy men, single intranasal dose; seric LH, FSH and steroids by radioimmunoassay; type: in vivo
Description: The inhibitory activity of [D Ser (tbu)^6 of des Gly NH2^10 ] LH-RH ethylamide (described in German application Ser. No. 2,438,350) against testicular steroidogensis in men in good health was determined on men in good health aged 30 to 40 years. The said product was administered intranasally at a dose of 500 μg in a few drops of distilled water at 8 A.M. on the third day of the test. For 2 days prior to the treatment and for 6 days after the treatment, samples of blood were taken daily at 8 A.M., 3 P.M. and 10 P.M. On the day of administration of the LH-RH agonist, blood samples were taken at 11 A.M. and 6 P.M.
The seric concentrations of LH and FSH were measured by radioimmuno-logic dosages with double antibodies and the antibodies for measuring LH and FSH were furnished by the National Pituitary Agency of N.I.H. in Bethesda, Md. The seric concentrations of steroids was measured by radioimmuno-logic dosages in which one ml of serum was extracted with ether and the steroids were separated on a LH-20 column before measuring with radioimmuno-logic dosages. The radioimmuno-logic dosage results were determined by a program derived from model II of Rodbard et al [Second Karolinska Symposium on Research Methods in Reproductive Endrocrinology, Diczfalusky Editor, Copenhague (1970), p. 79-103]. The statistical significance was determined by the "multiple level test" of Ducan-Kramer [Kramer, Biometrics, Vol 12 (1956), p. 307]. The results are shown in the graphs on sheet 1 of the FIGS. filed herewith.

[2] = tested on: testicular steriodogenosis; assay: Inhibition of testicular steroidogenesis in a patient with prostate cancer, intranasal twice a day; type: in vivo, human; details: intranasal 500 μg twice a day
Description: The inhibitory activity of [D Ser (tbu)^6 des Gly NH2^10 ] […] The results are reported in the graphs of sheet 2 of the Figures.

[3] = tested on: ovarian steroidogenosis; assay: Inhibition of ovarian steroidogenesis in women, intranasal, 6 consecutive cycles; type: in vivo; details: for reduction of seric levels of progesterone as compared to the controls: typical case (sheet 3)
Description: The inhibitory activity of [D Ser (tbu)^6 des Gly NH2^10 ] LH-RH ethylamide on ovarian steroidogenosis in women was determined on 6 women aged 26 to 35 years with normal and regular menstrual cycles and without prior endocrinal or gynecological problems. The study was conducted for 6 consecutive cycles consisting of 2 pretreatment cycles, 2 treatment cycles and 2 post-treatment cycles. Two drops of a solution containing 500 μg of [D Ser (tbu)^6 des Gly NH2^10 ] LH-RH ethylamide were deposited on each nostril at 8 A.M. and 5P.M. of a day between the 4th and 9th day after the peak of LH-day 0. Daily blood samples were taken between 4 and 6 P.M. to measure seric levels of LH, FSH, progesterone and estradiol which were determined by radioimmuno-logictests with double antibodies. The antibodies to measure LH and FSH were furnished by the National Pituitory Agency of N.I.H. of Bethesda, Md.
Estradiol and progesterone were measued with highly specific antibodies developed against 7-(0-carboxymethyl)oxime of estradiol and 12-(0-carboxymethyl)-oxime of progesterone, respectively [3H] 17β-estradiol and ^125 I-progesterone-12-[0-carboxymethyl)-oxime]used as tracers. The serum was extracted with benzene and the steroids were separated with a LH-20 column before the determination. The radioimmunological results were exploited by the program derived from model II of Rodbard and Lewald as in Example 1 and the statistical significance was measured by the multiple level test of Ducan-Kramer of Example 1. The results are shown in the graphs of sheets 3 to 5 of the FIG.

CCNC(=O)[C@@H]1CCCN1C(=O)[C@H](CCCNC(=N)N)NC(=O)[C@H](CC(C)C)NC(=O)[C@@H](COC(C)(C)C)NC(=O)[C@H](Cc1ccc(O)cc1)NC(=O)[C@H](CO)NC(=O)[C@H](Cc1c[nH]c2ccccc12)NC(=O)[C@H](Cc1c[nH]cn1)NC(=O)[C@@H]1CCC(=O)N1 [[D Ser (tbu)^6 des Gly NH2^10] LH-RH ethylamide]
duration of drop of seric levels of testicular steroids (testosterone and its precursors) ([1]; human, single intranasal dose 500 μg): 3 days
level of testosterone/steroids on the fourth day after administration ([1]; human, single intranasal dose 500 μg, fourth day (until 6th day)): returned to normal; also recorded: return to normal levels
overall effect on testicular steroidogenesis ([1]; men, intranasal 500 μg): inhibition of testicular steroidogenesis
level of androgenic steroids [2]: diminution
level of progesterone, cycles of pretreatment as base of 100% ([3]; 12 cycles of post-treatment): 99%
level of progesterone, cycles of pretreatment as base of 100% ([3]; 12 cycles of treatment): 46%
level of progesterone reduced as compared to the controls ([3]; all results (sheet 5), cycles of treatment): 46%
level of seric progesterone in the 2 cycles of post-treatment ([3]; sheet 4, post-treatment cycles): return to normal
level of seric progesterone in the 2 cycles of treatment ([3]; sheet 4, treatment cycles): accelerated diminution
reduction of seric levels of progesterone as compared to the controls ([3]; first cycle of treatment, intranasal 500 μg at 8 A.M. and 5 P.M.): 13%
reduction of seric levels of progesterone as compared to the controls ([3]; second cycle of treatment): 34%
